In US20250129095A1, “ANNULATED 2-AMINO-3-CYANO THIOPHENES AND DERIVATIVES FOR THE TREATMENT OF CANCER” (Boehringer Ingelheim Int'l GmbH Corp., priority 2021, published 2025):
In brackets after ≈: the same amount, converted by molar mass. Read-outs that look alike come from different tables or passages of the source.

How the values were obtained:
KRAS G12C Ba/F3 = KRAS G12C Ba/F3 (Homo sapiens, UniProt P01116, G12C, cells depend on it); assay: Ba/F3 proliferation assay, KRAS G12C; type: cell-based; conditions: 72 h, AlamarBlue, read-out: KRAS G12C Ba/F3 IC50
Chain of KRAS G12C Ba/F3 (P01116 whole entry G12C, canonical isoform): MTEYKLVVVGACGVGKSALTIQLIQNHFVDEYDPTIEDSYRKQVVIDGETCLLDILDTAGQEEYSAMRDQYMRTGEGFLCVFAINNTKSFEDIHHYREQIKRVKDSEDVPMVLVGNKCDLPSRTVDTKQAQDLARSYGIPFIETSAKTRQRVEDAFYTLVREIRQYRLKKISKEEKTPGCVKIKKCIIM
Method: (§1) Plasmids containing KRASG12 mutants(i.e. G12D, G12C, G12V) are obtained from GeneScript. To generate KRASG12-dependent Ba/F3 models, Ba/F3 cells are transduced with retroviruses containing vectors that harbor KRASG12 isoforms. Platinum-E cells (Cell Biolabs) are used for retrovirus packaging. Retrovirus is added to Ba/F3 cells. To ensure infection, 4 μg/mL polybrene is added and cells are spinfected. […] Cells with an infection efficiency of 10% to 20% are further cultivated and puromycin selection with 1 μg/mL is initiated. As a control, parental Ba/F3 cells are used to show selection status. Selection is considered successful when parental Ba/F3 cells cultures died. To evaluate the transforming potential of KRASG12 mutations, the growth medium is no longer supplemented with IL-3. Ba/F3 cells harboring the empty vector are used as a control. Approximately ten days before conducting the experiments, puromycin is left out.
(§2) Compounds are added using an Access Labcyte Workstation with a Labcyte Echo 550 or 555 accoustic dispenser. All treatments are performed in technical duplicates. […] AlamarBlue™ (ThermoFisher), a viability stain, is added and fluorescence measured in the PerkinElmer Envision HTS Multilabel Reader. The raw data are imported into and analyzed with the Boehringer Ingelheim proprietary software MegaLab (curve fitting based on the program PRISM, GraphPad Inc.).

KRAS G12D Ba/F3 = KRAS G12D Ba/F3 (Homo sapiens, UniProt P01116, G12D, cells depend on it); assay: Ba/F3 proliferation assay, KRAS G12D; type: cell-based; conditions: 72 h, AlamarBlue, read-out: KRAS G12D Ba/F3 IC50
Chain of KRAS G12D Ba/F3 (P01116 whole entry G12D): as the sequence (P01116 whole entry G12C, canonical isoform) above, with C12D counted along it
Method: as §1, §2

[1] = Plasma protein binding assay (PPB), equilibrium dialysis; type: in vitro ADME; conditions: bovine, 10% FCS in PBS, read-out: PPB 10% FCS (% fu)
Method: Binding of test compounds to plasma was determined using equilibrium dialysis (ED) and quantitative mass spectrometry interfaced with liquid chromatography (LC-MS). In brief, ED was performed with dialysis devices consisting of two chambers separated by a semipermeable membrane with a molecular weight cut-off of 5-10 kg/mol. One chamber was filled with 10% FCS in PBS containing 1-10 μmol/L test compound and the other chamber was filled with phosphate-buffer saline (PBS) with or without dextran. The dialysis chamber was incubated for 3-5 hours at 37° C. After incubation, protein was precipitated from aliquots of each chamber and the concentration of test compound in the supernatant of the plasma-containing compartment (cserum) and of the buffer-containing compartment (cbuffer) was determined by LC-MS. The fraction of unbound test compound (not bound to plasma) (fu) was calculated according to the following equation: […]

AsPC-1 cells = assay: AsPC-1 CTG proliferation assay (120 h) (pancreatic cancer, G12D); type: cell-based; conditions: Homo sapiens, ASPC1
Method: The CTG assay is designed to measure quantitatively the proliferation of AsPC-1 cells (ATCC CRL-5985), using the CellTiter Glow Assay Kit (Promega G7571). Cells are grown in RPMI medium (ATCC) supplemented with Fetal Calf Serum (Life Technologies, Gibco BRL, Cat. No. 10270-106). On “day 0” 2000 AsPC-1 cells are seeded in 60 μL RPMI ATCC+10% FCS+ Penstrep in a 384-well plate, flat and clear bottom (Greiner, PNr. 781091). Cells are then incubated in the plates at 37° C. in a CO2 incubator overnight. On day 1, compounds (10 mM stock in DMSO) are added with the ECHO acoustic liquid handler system (Beckman Coulter), including DMSO controls. Plates are incubated for 120 h, and cell viability is measured using CellTiter-Glo luminescent cell viability reagent (Promega product code G7570). Viability (stated as percent of control) is defined as relative luminescence units RLU of each well divided by the RLU of cells in DMSO controls.

KRAS G12V Ba/F3 = KRAS G12V Ba/F3 (Homo sapiens, UniProt P01116, G12V, cells depend on it); assay: Ba/F3 proliferation assay, KRAS G12V; type: cell-based; conditions: 72 h, AlamarBlue, read-out: KRAS G12V Ba/F3 IC50
Chain of KRAS G12V Ba/F3 (P01116 whole entry G12V): as the sequence (P01116 whole entry G12C, canonical isoform) above, with C12V counted along it
Method: as §1, §2

[2] = Metabolic (microsomal) stability assay, human liver microsomes (HLM); type: in vitro ADME; conditions: 1 μM, predicted clearance as percent of liver blood flow
Method: The metabolic degradation of the test compound is assayed at 37° C. with pooled liver microsomes (mouse (MLM), rat (RLM) or human (HLM)). The final incubation volume of 48 μL per time point contains TRIS buffer (pH 7.5; 0.1 M), magnesium chloride (6.5 mM), microsomal protein (0.5 mg/mL for mouse/rat, 1 mg/mL for human specimens) and the test compound at a final concentration of 1 μM. Following a short preincubation period at 37° C., the reactions are initiated by addition of 12 μL beta-nicotinamide adenine dinucleotide phosphate, reduced form (NADPH, 10 mM) and terminated by transferring an aliquot into solvent after different time points (0, 5, 15, 30, 60 min). Additionally, the NADPH-independent degradation is monitored in incubations without NADPH, terminated at the last time point by addition of acetonitrile. The quenched incubations are pelleted by centrifugation (4,000 rpm, 15 min). An aliquot of the supernatant is assayed by LC-MS/MS to quantify the concentration of parent compound in the individual samples.
In vitro intrinsic clearance (CLint, in vitro) is calculated from the time course of the disappearance of the test drug during the microsomal incubation. Each plot is fitted to the first-order elimination rate constant as C(t)=C0*exp(−ke*t), where C(t) and C0 are the concentration of unchanged test drug at incubation time t and that at preincubation and ke is the disappearance rate constant of the unchanged drug. Subsequently, CLint, in vitro (μL min^−1·amount protein) values are converted to predicted CLint, in vitro (mL min^−1·kg^−1) from incubation parameters according to the equation CLint, in vitro=CLint, in vitro×(incubation volume (ml)/amount protein (mg))×(amount protein (mg)/g liver tissue)×(liver weight/body wt.). For better across species comparison the predicted clearance is expressed as percent of the liver blood flow [% QH](mL min^−1·kg^−1) in the individual species. In general, high stability (corresponding to low % QH) of the compounds across species is desired.

[3] = Solubility measurement (DMSO solution precipitation method); type: physicochemical; conditions: aqueous buffer, kinetic from dmso stock
Method: The DMSO solution is diluted with an aqueous medium (McIlvaine buffer with pH=4.5 or 6.8) to a final concentration of 250 μM. After 24 h of shaking at ambient temperature a potentially formed precipitate is removed by filtration. The concentration of the test compound in the filtrate is determined by LC-UV methods by calibrating the signal to the signal of a reference solution with complete dissolution of the test compound in acetonitrile/water (1:1) with known concentration.

[4] = McIlvaine buffer pH 4.5, 24 h, read-out: Solubility [μg/ml] pH 4.5
[5] = McIlvaine buffer pH 6.8, 24 h, read-out: Solubility [μg/ml] pH 6.8

Row | GI50 (KRAS G12C Ba/F3) [µM] | GI50 (KRAS G12D Ba/F3) [µM] | fraction unbound [1] | IC50 (AsPC-1 cells) [µM] | GI50 (KRAS G12V Ba/F3) [µM] | HLM QH [%] [2] [%] | solubility at 24 h [3, 4] [µg/mL] | solubility at 24 h [3, 5] [µg/mL] | Compound
1 | 0.029 | 0.059 | 0.5 | 3.55 | 0.012 | <24 |  |  | C[C@H](Oc1cc(Nc2ccncn2)nc(-c2noc3c2CCC[C@@]32CCCc3sc(N)c(C#N)c32)n1)[C@@H]1CCCN1C [II-15]
2 | 0.004 | 0.006 | 0.19 | 0.699 | 0.004 | <24 | > 137 | > 124 | C[C@H](Oc1cc(Oc2cncnc2)nc(-c2noc3c2CCC[C@@]32CCCc3sc(N)c(C#N)c32)n1)[C@@H]1CCCN1C [II-1]
3 | 0.083 | 0.041 | 0.6 | 9.47 | 0.046 | 26 | > 135 | 107 (≈ 186 µM) | C[C@H](Oc1cc(N[C@H]2CCOC2)nc(-c2onc3c2CCC[C@@]32CCCc3sc(N)c(C#N)c32)n1)[C@@H]1CCCN1C [Example I-4]
4 | 0.218 | 0.091 | 0.12 | 1.42 | 0.151 | <24 | > 161 | > 164 | C[C@H](Oc1cc(O[C@H]2CN(C)C(C)(C)C2)nc(-c2noc3c2CCC[C@@]32CCCc3sc(N)c(C#N)c32)n1)[C@@H]1CCCN1C [II-19]
5 | 0.037 | 0.046 | 0.61 | 3.01 | 0.011 | 41 |  |  | C[C@H](Oc1cc(Nc2cccnn2)nc(-c2noc3c2CCC[C@@]32CCCc3sc(N)c(C#N)c32)n1)[C@@H]1CCCN1C [II-18]
6 | 0.071 | 0.122 | 0.45 |  | 0.067 | <24 | 111 (≈ 192 µM) | 109 (≈ 189 µM) | COC[C@H](C)Nc1cc(O[C@@H](C)[C@@H]2CCCN2C)nc(-c2onc3c2CCC[C@@]32CCCc3sc(N)c(C#N)c32)n1 [Example I-5]
7 | 0.133 | 0.005 | 0.52 | 0.049 | 0.161 | <24 |  |  | C[C@H](Oc1cc(O[C@@H]2CNC2(C)C)nc(-c2noc3c2CCC[C@@]32CCCc3sc(N)c(C#N)c32)n1)[C@@H]1CCCN1C [II-9]
8 | 0.079 | 0.022 | 0.52 | 0.43 | 0.065 | 28 |  |  | C[C@H](Oc1cc(O[C@@H]2CNC[C@@H]2F)nc(-c2noc3c2CCC[C@@]32CCCc3sc(N)c(C#N)c32)n1)[C@@H]1CCCN1C [II-29]
9 | 0.024 | 0.043 | 0.37 |  | 0.011 | 42 | 41 (≈ 70.4 µM) | < 1 | C[C@H](Oc1cc(Nc2ccccn2)nc(-c2noc3c2CCC[C@@]32CCCc3sc(N)c(C#N)c32)n1)[C@@H]1CCCN1C [II-16]

Second part, the compound before the results:

Row | Compound | GI50 (KRAS G12C Ba/F3) [µM] | GI50 (KRAS G12D Ba/F3) [µM] | fraction unbound [1] | IC50 (AsPC-1 cells) [µM] | GI50 (KRAS G12V Ba/F3) [µM] | HLM QH [%] [2] [%] | solubility at 24 h [3, 4] [µg/mL] | solubility at 24 h [3, 5] [µg/mL]
10 | C[C@H](Oc1cc(OCC2(N(C)C)COC2)nc(-c2onc3c2CCC[C@@]32CCCc3sc(N)c(C#N)c32)n1)[C@@H]1CCCN1C [Example I-8] | 0.051 | 0.011 | 0.45 | 0.272 | 0.085 | 30 | > 143 | > 125
11 | C[C@H](Oc1cc(Nc2cnccn2)nc(-c2noc3c2CCC[C@@]32CCCc3sc(N)c(C#N)c32)n1)[C@@H]1CCCN1C [II-14] | 0.015 | 0.059 | 0.1 | 3.18 | 0.007 | <24 | 67 (≈ 115 µM) | 11 (≈ 18.8 µM)
12 | COc1c(OCC2(N(C)C)COC2)nc(-c2noc3c2CCC[C@@]32CCCc3sc(N)c(C#N)c32)nc1O[C@@H](C)[C@@H]1CCCN1C [II-25] | 0.085 | 0.015 | 0.48 | 0.571 | 0.137 | 46 | > 163 | > 152
13 | C[C@H](Oc1cc(NCC2COC2)nc(-c2noc3c2CCC[C@@]32CCCc3sc(N)c(C#N)c32)n1)[C@@H]1CCCN1C [II-11] | 0.014 | 0.028 | 0.62 | 2.27 | 0.029 | 36 |  | 
14 | C[C@H](Oc1cc(O[C@@H]2CNC2(C)C)nc(-c2noc3c2CCC[C@@]32CCCc3sc(N)c(C#N)c32)n1)[C@@H]1C[C@@H](F)CN1C [II-31] | 0.203 | 0.003 | 0.31 | 0.025 | 0.23 | 37 | > 157 | > 143
15 | C[C@H](Oc1cc(Nc2ncccn2)nc(-c2noc3c2CCC[C@@]32CCCc3sc(N)c(C#N)c32)n1)[C@@H]1CCCN1C [II-17] | 0.019 | 0.033 | 0.28 | 2.72 | 0.01 | <24 | 67 (≈ 115 µM) | < 1
16 | C[C@H]1CN(C)CCCN1c1cc(O[C@@H]2CNC2(C)C)nc(-c2noc3c2CCC[C@@]32CCCc3sc(N)c(C#N)c32)n1 [II-28] | 2.08 | 0.13 | 0.59 | 0.443 | 2.04 | 26 | > 151 | > 146
